IC50 data for 38 compounds are collected here from US8076356B2, “Triazolopyridinylsulfanyl derivatives as P38 map kinase inhibitors” (Pfizer Inc., priority 2004, dated 2011).

As usually defined, the pIC50 is −log10 of the IC50, conventionally taken in molar units.

pIC50: −log10 of the molar value. Read-outs that look alike come from different tables or passages of the source.

For the assay, the system named is TNFα release from human peripheral blood mononuclear cells. Briefly: TNFα screen. It counts as cell-based. The following applies: LPS-stimulated human peripheral blood mononuclear cells, 18 hours incubation, TNFα in supernatant by ELISA, read-out: TNF IC50. The procedure:
Venous blood is collected from healthy volunteers and the mononuclear cells purified by centrifugation through Histopaque (Ficoll) cushions. TNFα production from these cells is stimulated by addition of lipopolysaccharide. After 18 hours incubation in the presence of LPS, the cell supernatant is removed and the concentration of TNFα in the supernatant determined by ELISA.

With `CSC(C)(C)c1cc(NC(=O)NCc2ccccc2Sc2ccc3nnc(-c4ccccc4C(C)C)n3c2)n(-c2ccc(O)cc2)n1` [Example 142], the negative logarithm of the IC50 (pIC50) is 8.66. `CC(C)(C)c1cc(NC(=O)NCc2ccccc2Sc2ccc3nnc(-c4ccccc4O)n3c2)n(-c2ccccn2)n1` [Example 71, N-(3-tert-Butyl-1-pyridin-2-yl-1H-pyrazol-5-yl)-N′-(2-{[3-(2-hydroxyphenyl)[1,2,4]triazolo[4,3-a]pyridin-6-yl]thio}benzyl)urea]: the pIC50 (PBMC) is 8.52.

Consider `CC(C)c1ccccc1-c1nnc2ccc(Sc3ccccc3CNC(=O)Nc3cc(C(C)(C)C)nn3-c3ccc(O)cc3)cn12` [Example 144], for which the pIC50 is 8.92.

For `CSC(C)(C)c1cc(NC(=O)NCc2ccccc2Sc2ccc3nnc(-c4cc(Cl)ccc4O)n3c2)n(-c2ccc(C)cc2)n1` [Example 87, N-(2-{[3-(5-Chloro-2-hydroxyphenyl)[1,2,4]triazolo[4,3-a]pyridin-6-yl]thio}benzyl)-N′-[3-[1-methyl-1-(methylthio)ethyl]-1-(4-methylphenyl)-1H-pyrazol-5-yl]urea], the pIC50 (PBMC) is 9.22.

In the case of `CCc1ccccc1-c1nnc2ccc(Sc3ccccc3CNC(=O)Nc3cc(C(C)(C)SC)nn3-c3ccc(O)cc3)cn12` [Example 132], the pIC50 was 8.35. In the case of `Cc1cc(OCc2ccccc2)cc(-n2nc(C(C)(C)C)cc2NC(=O)NCc2ccccc2Sc2ccc3nnc(C(C)C)n3c2)c1` [Example 124], the pIC50 was 8.34. In the case of `CC(C)(C)c1cc(NC(=O)NCc2ccccc2Sc2ccc3nnc(-c4ccccc4O)n3c2)n(-c2cccnc2)n1` [Example 70, N-(3-tert-Butyl-1-pyridin-3-yl-1H-pyrazol-5-yl)-N′-(2-{[3-(2-hydroxyphenyl)[1,2,4]triazolo[4,3-a]pyridin-6-yl]thio}benzyl)urea], the pIC50 (PBMC) was 9.05. `CC(C)(C)c1cc(NC(=O)NCc2ccccc2Sc2ccc3nnc(-c4cccc(O)c4Cl)n3c2)n(-c2ccc(F)c(F)c2)n1` [Example 128]: the pIC50 is 8.43.

For `CC(C)c1ccccc1-c1nnc2ccc(Sc3ccccc3CNC(=O)Nc3cc(C(C)(C)C)nn3-c3ccc(OCCO)cc3)cn12` [Example 139], the pIC50 is 8.49. Same read-out and setting: the value for `CSC(C)(C)c1cc(NC(=O)NCc2ccccc2Sc2ccc3nnc(C(C)C)n3c2)n(-c2ccc(OCCO)cc2)n1` [Example 125] was 7.10.

Regarding `CSC(C)(C)c1cc(NC(=O)NCc2ccccc2Sc2ccc3nnc(C(C)C)n3c2)n(-c2cccc(O)c2)n1` [Example 26, N-{1-(3-Hydroxyphenyl)-3-[1-methyl-1-(methylthio)ethyl]-1H-pyrazol-5-yl}-N′-{2-[(3-isopropyl[1,2,4]triazolo[4,3-a]pyridin-6-yl)thio]benzyl}urea], the pIC50 (PBMC) is 8.80.

Regarding `CSCC(C)(C)c1cc(NC(=O)NCc2ccccc2Sc2ccc3nnc(-c4ccccc4O)n3c2)n(-c2cccc(F)c2)n1` [Example 63], the pIC50 is 8.85. Turning to `CCC(C)(C)c1cc(NC(=O)NCc2ccccc2Sc2ccc3nnc(-c4ccccc4O)n3c2)n(-c2cccc(OCCO)c2)n1` [Example 100], the negative-log IC50 (pIC50) (PBMC) was 8.96. Turning to `CSCC(C)(C)c1cc(NC(=O)NCc2ccccc2Sc2ccc3nnc(-c4ccccc4O)n3c2)n(-c2ccccc2)n1` [Example 60], the pIC50 was 8.85. As to `Cc1ccccc1-c1nnc2ccc(Sc3ccccc3CNC(=O)Nc3cc(C(C)(C)C)nn3-c3cccc(OCCO)c3)cn12` [Example 105, N-{3-tert-Butyl-1-[3-(2-hydroxyethoxy)phenyl]-1H-pyrazol-5-yl}-N′-(2-{[3-(2-methylphenyl)[1,2,4]triazolo[4,3-a]pyridin-6-yl]thio}benzyl)urea], the pIC50 (PBMC) is 9.22.

Turning to `CC(C)c1nnc2ccc(Sc3ccccc3CNC(=O)Nc3cc(C(C)(C)C)nn3-c3ccccn3)cn12` [Example 180], the pIC50 was 7.68. Turning to `CCc1ccccc1-c1nnc2ccc(Sc3ccccc3CNC(=O)Nc3cc(C(C)(C)C)nn3-c3cccc(OCCO)c3)cn12` [Example 104, N-{3-tert-Butyl-1-[3-(2-hydroxyethoxy)phenyl]-1H-pyrazol-5-yl}-N′-(2-{[3-(2-ethylphenyl)[1,2,4]triazolo[4,3-a]pyridin-6-yl]thio}benzyl)urea], the pIC50 (PBMC) is 9.00. Consider `CSC(C)(C)c1cc(NC(=O)NCc2ccccc2Sc2ccc3nnc(-c4ccccc4O)n3c2)n(-c2ccc(F)cc2)n1` [Example 94, N-{1-(4-Fluorophenyl)-3-[1-methyl-1-(methylthio)ethyl]-1H-pyrazol-5-yl}-N′-(2-{[3-(2-hydroxyphenyl)[1,2,4]triazolo[4,3-a]pyridin-6-yl]thio}benzyl)urea], for which, under “PBMC”, the pIC50 was 9.05. As for `Cc1cccc(-n2nc(C(C)(C)C)cc2NC(=O)NCc2ccccc2Sc2ccc3nnc(-c4cc(Cl)ccc4O)n3c2)c1` [Example 58], the negative-log IC50 (pIC50) was 8.80.

On to `COc1ccccc1-c1nnc2ccc(Sc3ccccc3CNC(=O)Nc3cc(C(C)(C)C)nn3-c3ccc(O)cc3)cn12` [Example 143], for which the pIC50 is 8.92. Turning to `CC(C)c1nnc2ccc(Sc3ccccc3CNC(=O)Nc3cc(C(C)(C)C)nn3-c3cccc4cnccc34)cn12` [Example 181], the pIC50 was 8.57. Still for that read-out and setting: with `CSC(C)(C)c1cc(NC(=O)NCc2ccccc2Sc2ccc3nnc(C(C)C)n3c2)n(-c2cc(C)cc(C)c2)n1` [Example 136] the figure was 9.00. For the compound `CSc1ccccc1-c1nnc2ccc(Sc3ccccc3CNC(=O)Nc3cc(C(C)(C)C)nn3-c3cccc(O)c3)cn12` [Example 93, N-[3-tert-Butyl-1-(3-hydroxyphenyl)-1H-pyrazol-5-yl]-N′-[2-({3-[2-(methylthio)phenyl][1,2,4]triazolo[4,3-a]pyridin-6-yl}thio)benzyl]urea], the pIC50 (PBMC) was 8.96. In the case of `CSC(C)(C)c1cc(NC(=O)NCc2ccccc2Sc2ccc3nnc(-c4ccc(C)cc4O)n3c2)n(-c2cccc(C)c2)n1` [Example 151], the pIC50 was 8.85.

On to `Cc1ccc(-n2nc(C(C)(C)C)cc2NC(=O)NCc2ccccc2Sc2ccc3nnc(-c4ccccc4OCc4ccccc4)n3c2)cc1` [Example 116], for which the pIC50 is 8.49.

Take `COc1ccccc1-c1nnc2ccc(Sc3ccccc3CNC(=O)Nc3cc(C(C)(C)C)nn3-c3cccc(OCCO)c3)cn12` [Example 45, N-{3-tert-Butyl-1-[3-(2-hydroxyethoxy)phenyl]-1H-pyrazol-5-yl}-N′-(2-{[3-(2-methoxyphenyl)[1,2,4]triazolo[4,3-a]pyridin-6-yl]thio}benzyl)urea]: the pIC50 (PBMC) is 8.85. For `CSC(C)(C)c1cc(NC(=O)NCc2ccccc2Sc2ccc3nnc(-c4cc(Cl)ccc4O)n3c2)n(-c2cccc(C)c2)n1` [Example 86, N-(2-{[3-(5-Chloro-2-hydroxyphenyl)[1,2,4]triazolo[4,3-a]pyridin-6-yl]thio}benzyl)-N′-[3-[1-methyl-1-(methylthio)ethyl]-1-(3-methylphenyl)-1H-pyrazol-5-yl]urea], the pIC50 (PBMC) was 9.10. Same read-out and setting: with `CC(C)c1nnc2ccc(Sc3ccccc3CNC(=O)Nc3cc(C(C)(C)C)nn3-c3cccnc3)cn12` [Example 34, N-(3-tert-Butyl-1-pyridin-3-yl-1H-pyrazol-5-yl)-N′-{2-[(3-isopropyl[1,2,4]triazolo[4,3-a]pyridin-6-yl)thio]benzyl}-urea] the figure was 8.89; with `CSC(C)(C)c1cc(NC(=O)NCc2ccccc2Sc2ccc3nnc(-c4ccccc4O)n3c2)n(-c2ccc(F)c(F)c2)n1` [Example 95, N-{1-(3,4-Difluorophenyl)-3-[1-methyl-1-(methylthio)ethyl]-1H-pyrazol-5-yl}-N′-(2-{[3-(2-hydroxyphenyl)[1,2,4]triazolo[4,3-a]pyridin-6-yl]thio}benzyl)urea], 9.22. `CC(C)(C)c1cc(NC(=O)NCc2ccccc2Sc2ccc3nnc(-c4ccccc4F)n3c2)n(-c2ccc(OCCO)cc2)n1` [Example 141]: the pIC50 was 8.85. On the same count and under the same terms, with `COc1ccccc1-c1nnc2ccc(Sc3ccccc3CNC(=O)Nc3cc(C(C)(C)SC)nn3-c3ccc(O)cc3)cn12` [Example 140] the figure was 8.74.

In the case of `COc1ccc(-n2nc(C(C)(C)C)cc2NC(=O)NCc2ccccc2Sc2ccc3nnc(-c4ccccc4O)n3c2)cc1` [Example 97, N-[3-tert-Butyl-1-(4-methoxyphenyl)-1H-pyrazol-5-yl]-N′-(2-{[3-(2-hydroxyphenyl)[1,2,4]triazolo[4,3-a]pyridin-6-yl]thio}benzyl)urea], the pIC50 (PBMC) was 9.22.

As for `CC(C)c1ccccc1-c1nnc2ccc(Sc3ccccc3CNC(=O)Nc3cc(C(C)(C)C)nn3-c3cccc(OCCO)c3)cn12` [Example 44, N-{3-tert-Butyl-1-[3-(2-hydroxyethoxy)phenyl]-1H-pyrazol-5-yl}-N′-(2-{[3-(2-isopropylphenyl)[1,2,4]triazolo[4,3-a]pyridin-6-yl]thio}benzyl)urea], the negative-log IC50 (pIC50) (PBMC) is 8.96. Consider `CC(C)(C)c1cc(NC(=O)NCc2ccccc2Sc2ccc3nnc(-c4ccccc4O)n3c2)n(-c2cccc(OCCO)c2)n1` [Example 80, N-{3-tert-Butyl-1-[3-(2-hydroxyethoxy)phenyl]-1H-pyrazol-5-yl}-N′-(2-{[3-(2-hydroxyphenyl)[1,2,4]triazolo[4,3-a]pyridin-6-yl]thio}benzyl)urea], for which the negative logarithm of the IC50 (pIC50) (PBMC) is 8.96. As for `CNC(=O)c1ccc(-n2nc(C(C)(C)C)cc2NC(=O)NCc2ccccc2Sc2ccc3nnc(C(C)C)n3c2)cc1` [Example 118], the pIC50 was 7.80. On the same count and under the same terms, the value for `CC(C)(C)c1cc(NC(=O)NCc2ccccc2Sc2ccc3nnc(-c4ccccc4Cl)n3c2)n(-c2cccc(O)c2)n1` [Example 54] was 9.15; that for `CCC(C)(C)c1cc(NC(=O)NCc2ccccc2Sc2ccc3nnc(-c4ccccc4O)n3c2)n(-c2cccnc2)n1` [Example 182] was 9.15. Take `CSC(C)(C)c1cc(NC(=O)NCc2ccccc2Sc2ccc3nnc(-c4cccc(Cl)c4O)n3c2)n(-c2ccc(C)cc2)n1` [Example 153]: the pIC50 was 8.32.
